# Key:
# PTP-1B = biological target: T1, PTP-1B (Homo sapiens, UniProt P18031); test: In vitro PTPase inhibition assay (pNPP, colorimetric), PTP-1B; format: biochemical; conditions: Table 9; read-out: IC50 values against PTP1B
# T1 construct: known to encode a 321 amino acid fragment containing the PTP-1B catalytic domain and having PTPase activity; made in house; host or cells: E. coli DH5α, plasmid pGEX-3X-PTP-1B
# T1 sequence (P18031 3-277 limits assumed): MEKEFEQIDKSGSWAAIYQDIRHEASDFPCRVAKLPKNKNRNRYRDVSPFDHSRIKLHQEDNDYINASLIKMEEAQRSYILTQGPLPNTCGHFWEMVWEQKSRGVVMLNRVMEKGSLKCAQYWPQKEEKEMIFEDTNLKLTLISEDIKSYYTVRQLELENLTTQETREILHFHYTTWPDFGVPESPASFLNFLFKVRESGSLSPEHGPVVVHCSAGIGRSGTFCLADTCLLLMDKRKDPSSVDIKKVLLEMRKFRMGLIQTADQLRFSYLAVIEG
# Protocol: PTP-1B enzymatic activity of samples was assayed in microtiter plates as follows. The protein concentration of the PTP-1B enzyme preparation was determined using the Bio-Rad Protein Assay kit (Bio-Rad, Hercules Calif.). […] Reactions were mixed gently and incubated at 37° C. for 60 minutes. Enzymatic cleavage of phosphate from pNPP (a tyrosine phosphate analog) is marked by a colorimetric change in this substrate. See, e.g., Imbert et al., Biochem J., 297:163-173 (1994); Ghosh and Miller, Biochem. Biophys. Res. […] Zanke et al., Eur. J. […] To determine the enzymatic activity, absorbance readings of the reactions were measured at 405 nm using a Molecular Devices Thermomax Plate Reader (Menlo Park Calif.). […] Purified phosphatase was added to the reaction mixtures to begin the reactions; the reactions were incubated at 37° C. for 60 min. […] (for PTP-1C and PTPα assays), stopped, and colorimetrically analyzed as described above. […] First, absorbance readings from the negative control reactions were treated as a baseline and subtracted from the absorbance readings of the experimental reactions. Then, for each reaction, a percent inhibition was calculated using the following formula: […] For each inhibitor compound tested, an IC50 concentration was calculated from a best-fit computer analysis of the calculated percent inhibition for the various dilutions of the compound. PTP-1B enzymatic activity of samples was assayed in microtiter plates as follows. The protein concentration of the PTP-1B enzyme preparation was determined using the Bio-Rad Protein Assay kit (Bio-Rad, Hercules Calif.). […] Reactions were mixed gently and incubated at 37° C. for 60 minutes. Enzymatic cleavage of phosphate from pNPP (a tyrosine phosphate analog) is marked by a colorimetric change in this substrate. See, e.g., Imbert et al., Biochem J., 297:163-173 (1994); Ghosh and Miller, Biochem. Biophys. Res. […] Zanke et al., Eur. […] To determine the enzymatic activity, absorbance readings of the reactions were measured at 405 nm using a Molecular Devices Thermomax Plate Reader (Menlo Park Calif.). […] Purified phosphatase was added to the reaction mixtures to begin the reactions; the reactions were incubated at 37° C. for 60 min. […] (for PTP-1C and PTPα assays), stopped, and calorimetrically analyzed as described above. […] First, absorbance readings from the negative control reactions were treated as a baseline and subtracted from the absorbance readings of the experimental reactions. Then, for each reaction, a percent inhibition was calculated using the following formula: […] For each inhibitor compound tested, an IC50 concentration was calculated from a best-fit computer analysis of the calculated percent inhibition for the various dilutions of the compound.
# CD45 = biological target: T2, CD45 (Homo sapiens, UniProt P08575); test: In vitro PTPase inhibition assay (pNPP, colorimetric), CD45; format: biochemical; conditions: Table 9; read-out: IC50 values against CD45
# T2 construct: The PCR reaction product (2127 bp) was digested with Sma I (New England Biolabs, Beverly Mass.) to yield a 2110 bp product; made in house; host or cells: E. coli DH5α, plasmid pET24C-CD45
# T2 sequence (P08575 599-1306 limits assumed): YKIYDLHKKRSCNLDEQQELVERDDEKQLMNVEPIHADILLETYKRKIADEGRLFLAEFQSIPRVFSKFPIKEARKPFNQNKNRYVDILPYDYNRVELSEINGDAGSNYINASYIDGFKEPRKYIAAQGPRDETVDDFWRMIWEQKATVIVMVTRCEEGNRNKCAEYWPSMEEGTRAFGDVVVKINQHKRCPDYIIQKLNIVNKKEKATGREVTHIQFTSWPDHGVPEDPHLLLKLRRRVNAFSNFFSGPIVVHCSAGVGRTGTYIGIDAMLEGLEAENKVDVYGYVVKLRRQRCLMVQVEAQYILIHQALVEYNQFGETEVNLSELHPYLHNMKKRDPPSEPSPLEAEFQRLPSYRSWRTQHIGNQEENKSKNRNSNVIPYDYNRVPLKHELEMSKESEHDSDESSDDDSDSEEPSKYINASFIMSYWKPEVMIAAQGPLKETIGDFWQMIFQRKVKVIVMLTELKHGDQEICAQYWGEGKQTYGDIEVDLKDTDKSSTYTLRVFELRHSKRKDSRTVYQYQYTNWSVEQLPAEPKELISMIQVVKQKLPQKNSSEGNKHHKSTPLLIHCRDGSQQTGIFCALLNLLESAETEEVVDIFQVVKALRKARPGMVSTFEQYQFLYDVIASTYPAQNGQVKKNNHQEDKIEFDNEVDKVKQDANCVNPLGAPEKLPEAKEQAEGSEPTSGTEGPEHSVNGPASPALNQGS
# Protocol: CD45 enzymatic activity of samples was assayed in microtiter plates as follows. […] Louis Mo.), and 80 ul of activity assay buffer (100 mM sodium acetate, pH 6.0, 1 mM EDTA, 0.1% Triton X-100, 15 mM bME). Reactions were mixed gently and incubated at 37° C. for 60 minutes. […] To determine the enzymatic activity, absorbance readings of the reactions were measured at 405 nm using a Molecular Devices Thermomax Plate Reader (Menlo Park Calif.). […] Purified phosphatase was added to the reaction mixtures to begin the reactions; the reactions were incubated at 37° C. for 60 min. […] (for PTP-1C and PTPα assays), stopped, and colorimetrically analyzed as described above. […] First, absorbance readings from the negative control reactions were treated as a baseline and subtracted from the absorbance readings of the experimental reactions. Then, for each reaction, a percent inhibition was calculated using the following formula: […] For each inhibitor compound tested, an IC50 concentration was calculated from a best-fit computer analysis of the calculated percent inhibition for the various dilutions of the compound. CD45 enzymatic activity of samples was assayed in microtiter plates as follows. […] Louis Mo.), and 80 ul of activity assay buffer (100 mM sodium acetate, pH 6.0, 1 mM EDTA, 0. 1% Triton X-100, 15 mM bME). Reactions were mixed gently and incubated at 37° C. for 60 minutes. […] To determine the enzymatic activity, absorbance readings of the reactions were measured at 405 nm using a Molecular Devices Thermomax Plate Reader (Menlo Park Calif.). […] Purified phosphatase was added to the reaction mixtures to begin the reactions; the reactions were incubated at 37° C. for 60 min. […] (for PTP-1C and PTPα assays), stopped, and calorimetrically analyzed as described above. […] First, absorbance readings from the negative control reactions were treated as a baseline and subtracted from the absorbance readings of the experimental reactions. Then, for each reaction, a percent inhibition was calculated using the following formula: […] For each inhibitor compound tested, an IC50 concentration was calculated from a best-fit computer analysis of the calculated percent inhibition for the various dilutions of the compound.
Structure (SMILES),IC50 (PTP-1B) [nM],IC50 (CD45) [nM]
O=C(O)/C=C/c1ccc(-c2nc(-c3cccc(F)c3F)[nH]c2-c2ccc(/C=C/C(=O)O)cc2)cc1 [Compound 67],1000,1250
O=C(O)/C=C/c1ccc(-c2nc(-c3ccc(F)c(F)c3)[nH]c2-c2ccc(/C=C/C(=O)O)cc2)cc1 [Compound 66],1700,2500
COc1cccc(-c2nc(-c3ccc(/C=C/C(=O)O)cc3)c(-c3ccc(/C=C/C(=O)O)cc3)[nH]2)c1[N+](=O)[O-] [Compound 59],250,350
COc1cccc(-c2nc(-c3ccc(/C=C/C(=O)O)cc3)c(-c3ccc(/C=C/C(=O)O)cc3)[nH]2)c1O [Compound 69],410,1900
O=C(O)/C=C/c1ccc(-c2ncn(-c3ccccc3)c2-c2ccc(/C=C/C(=O)O)cc2)cc1 [Compound 99],1500,7400
O=C(O)/C=C/c1ccc(-c2nc(-c3ccc(OCc4ccccc4)cc3)[nH]c2-c2ccc(/C=C/C(=O)O)cc2)cc1 [Compound 87],1000,1100
O=C(O)/C=C/c1ccc(C(=O)C(=O)c2ccc(/C=C/C(=O)O)cc2)cc1 [Compound 9],370,3900
O=C(O)/C=C/c1ccc(-c2nc(-c3ccccc3[N+](=O)[O-])[nH]c2-c2ccc(/C=C/C(=O)O)cc2)cc1 [Compound 57],250,1000
COc1ccc(-c2nc(-c3ccc(/C=C/C(=O)O)cc3)c(-c3ccc(/C=C/C(=O)O)cc3)[nH]2)cc1 [Compound 58],250,970
O=C(O)/C=C/c1ccc(-c2nc(-c3ccco3)[nH]c2-c2ccc(/C=C/C(=O)O)cc2)cc1 [Compound 60],290,1000
CCN(CC)c1ccc(-c2nc(-c3ccc(/C=C/C(=O)O)cc3)c(-c3ccc(/C=C/C(=O)O)cc3)[nH]2)cc1 [Compound 68],300,865
CCCCn1cnc(-c2ccc(/C=C/C(=O)O)cc2)c1-c1ccc(/C=C/C(=O)O)cc1 [Compound 94],700,7000
COc1ccc(-c2nc(-c3ccc(/C=C/C(=O)O)cc3)c(-c3ccc(/C=C/C(=O)O)cc3)[nH]2)c(C)c1C [Compound 86],1800,7100
O=C(O)/C=C/c1ccc(-c2nc(-c3ccc(C(=O)O)cc3)[nH]c2-c2ccc(/C=C/C(=O)O)cc2)cc1 [Compound 54],72,730

# The remaining lines, values ahead:
IC50 (PTP-1B) [nM],IC50 (CD45) [nM],Structure (SMILES)
420,1900,O=C(O)/C=C/c1ccc(-c2nc(-c3cccs3)[nH]c2-c2ccc(/C=C/C(=O)O)cc2)cc1 [Compound 70]
860,1120,CC(=O)Nc1ccc(-c2nc(-c3ccc(/C=C/C(=O)O)cc3)c(-c3ccc(/C=C/C(=O)O)cc3)[nH]2)cc1 [Compound 90]
5500,1500,O=C(O)/C=C/c1ccc(-c2nc3ccccc3nc2-c2ccc(/C=C/C(=O)O)cc2)cc1 [Compound 157]
1000,1300,O=C(O)/C=C/c1ccc(-c2nc3ccc(C(=O)O)cc3nc2-c2ccc(/C=C/C(=O)O)cc2)cc1 [Compound 155]
520,5500,COc1cc(OC)c(OC)c(-c2nc(-c3ccc(/C=C/C(=O)O)cc3)c(-c3ccc(/C=C/C(=O)O)cc3)[nH]2)c1 [Compound 72]
3400,20000,O=C(O)/C=C/c1ccc(-c2[nH]cnc2C(=O)OCc2ccccc2)cc1 [Compound 134]
640,4200,Cn1cc(-c2nc(-c3ccc(/C=C/C(=O)O)cc3)c(-c3ccc(/C=C/C(=O)O)cc3)[nH]2)c2ccccc21 [Compound 74]
680,930,O=C(O)/C=C/c1ccc(-c2nc(-c3cc(F)ccc3F)[nH]c2-c2ccc(/C=C/C(=O)O)cc2)cc1 [Compound 76]
26000,19000,O=C(O)/C=C/c1ccc(-c2nc(-c3cc4ccccc4c4ccccc34)[nH]c2-c2ccc(/C=C/C(=O)O)cc2)cc1 [Compound 81]
13700,> 100000,O=C(O)/C=C/c1ccc(-c2nc(-c3ccc4c(c3)CCC4)[nH]c2-c2ccc(/C=C/C(=O)O)cc2)cc1 [Compound 89]
780,7500,CCCCCc1nc(-c2ccc(/C=C/C(=O)O)cc2)c(-c2ccc(/C=C/C(=O)O)cc2)[nH]1 [Compound 77]
25900,> 100000,COc1ccc(-c2nc(-c3cc(/C=C/C(=O)O)ccc3O)c(-c3cc(/C=C/C(=O)O)ccc3O)[nH]2)cc1 [Compound 91]

# From US20020183518A1, “Modulators of proteins with phosphotyrosine recognition units” (ONTOGEN CORPORATION, priority 1995, published 2002)
